Measurements: PMC8344243, “Design, synthesis, docking, ADMET studies, and anticancer evaluation of new 3-methylquinoxaline derivatives as VEGFR-2 inhibitors and apoptosis inducers” (Journal of Enzyme Inhibition and Medicinal Chemistry, 2021)

How the values were obtained:
[1] = test system: MCF-7; experiment: MTT anti-proliferative assay, MCF-7; assay type: cell-based; details: for IC50: Homo sapiens, MCF7, MCF-7, MTT assay, read-out: Cytotoxicity on cancer cells IC50, MCF-7
Method: (§1) In vitro cytotoxic activities of the synthesised compounds were evaluated against two different cancer cell lines; breast cancer (MCF-7) and hepatocellular carcinoma (HepG2) using standard MTT colorimetric assay as described by Mosmann[78]^,[79]. […].
(§2) The in vitro antiproliferative activities were assessed using the MTT assay protocol[78]^,[79]^,[95]. As shown in Supplementary Data.

[2] = test system: HepG2; experiment: MTT anti-proliferative assay, HepG2; assay type: cell-based; details: Homo sapiens, read-out: Cytotoxicity on cancer cells IC50, HepG2
Method: as §1, §2

[3] = target: T1, human VEGFR-2 (Homo sapiens, UniProt P35968); experiment: In vitro VEGFR-2 enzyme inhibition assay (ELISA kit, HepG2 cell line); assay type: biochemical; details: human VEGFR-2 in HepG2 cell line
T1 construct: endogenous in cells; host or cells: HepG2
T1 sequence (P35968 20-1356): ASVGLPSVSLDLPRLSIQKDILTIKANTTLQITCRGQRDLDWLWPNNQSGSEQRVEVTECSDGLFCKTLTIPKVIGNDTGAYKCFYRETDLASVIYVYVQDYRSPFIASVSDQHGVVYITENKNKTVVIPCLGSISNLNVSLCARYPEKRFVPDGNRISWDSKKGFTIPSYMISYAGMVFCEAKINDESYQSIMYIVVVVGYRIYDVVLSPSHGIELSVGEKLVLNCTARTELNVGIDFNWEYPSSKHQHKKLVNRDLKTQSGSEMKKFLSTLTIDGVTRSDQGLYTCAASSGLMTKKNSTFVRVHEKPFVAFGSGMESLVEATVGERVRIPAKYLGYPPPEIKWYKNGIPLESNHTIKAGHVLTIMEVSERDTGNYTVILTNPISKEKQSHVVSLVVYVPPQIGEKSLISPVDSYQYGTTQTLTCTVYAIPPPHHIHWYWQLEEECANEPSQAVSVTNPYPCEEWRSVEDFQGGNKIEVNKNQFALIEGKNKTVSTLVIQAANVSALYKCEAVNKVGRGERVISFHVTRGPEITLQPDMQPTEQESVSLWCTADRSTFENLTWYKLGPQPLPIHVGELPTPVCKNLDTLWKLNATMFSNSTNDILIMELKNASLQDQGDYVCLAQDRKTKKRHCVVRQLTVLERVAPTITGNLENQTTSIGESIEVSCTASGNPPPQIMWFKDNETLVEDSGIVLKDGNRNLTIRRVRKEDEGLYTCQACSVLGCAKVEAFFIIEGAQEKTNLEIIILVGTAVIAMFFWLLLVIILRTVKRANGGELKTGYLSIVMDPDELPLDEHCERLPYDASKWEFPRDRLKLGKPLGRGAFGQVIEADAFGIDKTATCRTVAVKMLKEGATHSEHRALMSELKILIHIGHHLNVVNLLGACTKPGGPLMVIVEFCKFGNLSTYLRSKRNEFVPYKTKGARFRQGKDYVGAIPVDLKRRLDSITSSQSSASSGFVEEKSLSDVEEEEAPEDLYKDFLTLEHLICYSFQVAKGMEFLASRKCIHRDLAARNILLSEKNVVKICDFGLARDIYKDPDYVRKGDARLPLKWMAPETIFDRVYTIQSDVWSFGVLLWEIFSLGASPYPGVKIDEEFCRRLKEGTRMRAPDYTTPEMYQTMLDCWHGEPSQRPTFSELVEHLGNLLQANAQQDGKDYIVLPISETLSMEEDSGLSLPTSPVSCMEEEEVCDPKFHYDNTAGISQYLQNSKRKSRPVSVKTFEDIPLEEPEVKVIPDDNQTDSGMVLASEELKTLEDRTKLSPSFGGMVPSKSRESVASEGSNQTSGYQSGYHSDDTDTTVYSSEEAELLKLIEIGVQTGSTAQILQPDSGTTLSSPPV
Source text: The synthesised compounds were estimated for their in vitro inhibition on human VEGFR-2 in HepG2 cell line; using ELISA kit[96] as described in Supplementary Data.

[4] = Cytotoxicity against primary rat hepatocytes (normal hepatic cells); assay type: cell-based; details: rat, primary rat hepatocytes
Source text: (§3) It is of high importance for anticancer agents to have minimum side effects on normal cells. […].

[5] = test system: primary rat hepatocytes; experiment: as above; assay type: cell-based; details: HepG2 vs primary rat hepatocytes
Source text: as §3

With Cc1nc2ccccc2nc1SCC(=O)Nc1ccc(C(=O)NCc2ccccc2)cc1 [Compound 30c, N-benzyl-4-(2-((3-methylquinoxalin-2-yl)thio)acetamido)benzamide] the IC50 [1] was 41.9 µM, the IC50 [2] was 34.1 µM and the IC50 [3] was 0.0138 µM. The melting point was 235 to 237 °C.
With Cc1nc2ccccc2nc1SCC(=O)Nc1ccc(C(=O)NCCc2ccccc2)cc1 [Compound 30d, 4-(2-((3-Methylquinoxalin-2-yl)thio)acetamido)-N-phenethylbenzamide] the IC50 [1] was 42.7 µM, the IC50 [2] was 32.4 µM and the IC50 [3] was 0.0157 µM. For the same compound, the melting point was 220 to 222 °C.
In the case of Cc1nc2ccccc2nc1SCC(=O)Nc1ccc(C(=O)Nc2ccccc2)cc1 [Compound 30e, 4-(2-((3-Methylquinoxalin-2-yl)thio)acetamido)-N-phenylbenzamide], the IC50 [1] is reported as 31.3 µM, the IC50 [2] is reported as 24.3 µM and the IC50 [3] is reported as 0.0274 µM.
For Cc1ccccc1NC(=O)c1ccc(NC(=O)CSc2nc3ccccc3nc2C)cc1 [Compound 30f, 4-(2-((3-Methylquinoxalin-2-yl)thio)acetamido)-N-(o-tolyl)benzamide], the IC50 [1] was 18.1 µM, the IC50 [2] was 10.7 µM and the IC50 [3] was 0.0049 µM. For the same compound, the IC50 [4] was 15.7 µM and the “Cytotoxic activity against cancer HepG2 cell line more than against normal hepatic cells” value [5] was 1.5 fold.
In the case of COc1cccc(OC)c1NC(=O)c1ccc(NC(=O)CSc2nc3ccccc3nc2C)cc1 [Compound 30g, N-(2,6-Dimethoxyphenyl)-4-(2-((3-methylquinoxalin-2-yl)thio)acetamido) benzamide], the IC50 [1] is reported as 61.7 µM, the “Activity against the MCF-7 cell line (in words)” value [1] is reported as “inactive” and the IC50 [2] is reported as 40.8 µM. It also gave an IC50 [3] of 0.0389 µM.
Cc1nc2ccccc2nc1SCC(=O)Nc1ccc(C(=O)Nc2ccc([N+](=O)[O-])cc2)cc1 [Compound 30h, 4-(2-((3-Methylquinoxalin-2-yl)thio)acetamido)-N-(4-nitrophenyl)benzamide] gave an IC50 [1] of 21.3 µM, an IC50 [2] of 17.7 µM and an IC50 [3] of 0.0118 µM. It also gave a melting point of 200 to 202 °C.
Work on Cc1nc2ccccc2nc1SCC(=O)Nc1ccc(C(=O)Nc2ccc(Cl)cn2)cc1 [Compound 30i, N-(5-Chloropyridin-2-yl)-4-(2-((3-methylquinoxalin-2-yl)thio)acetamido)benzamide] yielded an IC50 [1] of 17.2 µM, an IC50 [2] of 12.7 µM and an IC50 [3] of 0.0061 µM.
Cc1nc2ccccc2nc1SCC(=O)Nc1ccc(C(=O)NNC(=O)c2ccccc2)cc1 [Compound 31a, N-(4-(2-benzoylhydrazine-1-carbonyl)phenyl)-2-((3-methylquinoxalin-2-yl)thio) acetamide] showed an IC50 [1] of 23.1 µM, an IC50 [2] of 18.7 µM and an IC50 [3] of 0.0107 µM.
Cc1nc2ccccc2nc1SCC(=O)Nc1ccc(C(=O)NNC(=O)c2ccc([N+](=O)[O-])cc2)cc1 [Compound 31b, 2-((3-Methylquinoxalin-2-yl)thio)-N-(4-(2-(4-nitrobenzoyl)hydrazine-1-carbonyl)phenyl) acetamide] gave an IC50 [1] of 19.2 µM, an IC50 [2] of 13.7 µM and an IC50 [3] of 0.0051 µM. It also gave a melting point of 196 to 198 °C.
With Cc1nc2ccccc2nc1SCC(=O)Nc1ccc(C(=O)NNc2ccccc2)cc1 [Compound 32, 2-((3-Methylquinoxalin-2-yl)thio)-N-(4-(2-phenylhydrazine-1-carbonyl)phenyl) acetamide] the IC50 [1] was 59.5 µM, the “Activity against the MCF-7 cell line (in words)” value [1] was “inactive” and the IC50 [2] was 41.3 µM. It also gave an IC50 [3] of 0.0238 µM.
With CNC(=O)c1cc(Oc2ccc(NC(=O)Nc3ccc(Cl)c(C(F)(F)F)c3)cc2)ccn1 [Sorafenib, reference compound] the IC50 [2] was 2.17 µM, the IC50 [4] was 17.3 µM and the “Cytotoxic activity against cancer HepG2 cell line more than against normal hepatic cells” value [5] was 8 fold.
